Assay [1] concerns the target T1, dipeptidyl peptidase IV from porcine kidney (Sus scrofa, UniProt P22411).
T1 construct: dipeptidyl peptidase IV from porcine kidney with a specific activity against glycylprolyl-4-nitroaniline of 37.5 U/mg; from tissue; host or cells: porcine kidney
As to the kind of experiment: Ki determination, DPIV inhibition (inhibitor released from prodrug by APN). Format: biochemical. The settings on record: for Ki: porcine kidney DPIV, substrate Gly-Pro-pNA, APN added to release inhibitor, HEPES pH7.6, read-out: Ki; for T1/2 (half-life, from enzyme activity versus reaction time): same assay as Ki, unstable competitive inhibitor. On the procedure:
500 μl test compound in a concentration range of 1*10^−5 M-1*10^−11M were admixed with and 500 μl HEPES buffer (40 mM, pH7.6; ion strength=0.125) and 20 μl of diluted DPIV. Release of the inhibitor from the prodrug as well the monitoring reaction (DPIV-catalyzed hydrolysis of Gly-Pro-pNA) were started by addition of a mixture of 10 μl of APN stock solution (4.9 mg/ml, Sigma, Taufkirchen, Germany) with 250 μl of the substrate (Gly-Pro-pNA, 0.05-4 mM). Development of yellow color due to 4-nitroaniline release were monitored at λ=405 nm for up to 180 min using UV1 Spectrometer (ThermoSpectronic).
The Ki-values were calculated by fitting the first derivative of the time-progress curves using Graphit (v.4.0.13, Erithacus Software, Ltd, UK) and an equation for an unstable competitive inhibitor.
The half-life (t1/2) was calculated by plotting the enzyme activity versus reaction time.

Assay [2] has as its target T2, Prolidase from porcine kidney (Sus scrofa, UniProt A0A5G2QQV1).
T2 sequence (A0A5G2QQV1 1-463): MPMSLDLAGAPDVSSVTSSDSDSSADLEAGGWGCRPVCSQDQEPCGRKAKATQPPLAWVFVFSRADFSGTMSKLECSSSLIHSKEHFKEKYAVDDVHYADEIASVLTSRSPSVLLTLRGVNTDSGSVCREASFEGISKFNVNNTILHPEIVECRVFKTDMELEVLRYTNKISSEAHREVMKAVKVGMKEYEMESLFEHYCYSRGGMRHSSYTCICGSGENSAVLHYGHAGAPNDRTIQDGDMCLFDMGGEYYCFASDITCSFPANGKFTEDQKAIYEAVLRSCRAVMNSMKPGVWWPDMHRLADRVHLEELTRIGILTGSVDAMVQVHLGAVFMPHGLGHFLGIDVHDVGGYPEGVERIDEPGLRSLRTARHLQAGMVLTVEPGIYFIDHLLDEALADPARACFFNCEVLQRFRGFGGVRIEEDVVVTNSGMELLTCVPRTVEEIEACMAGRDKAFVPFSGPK
As to the kind of experiment: Cross reacting enzymes: prolidase. Format: biochemical. Particulars: substrate Ile-Pro-OH, pH 7.6. On the procedure:
Prolidase from porcine kidney (ICN Biomedicals, Eschwege, Germany) was solved (1 mg/ml) in assay buffer (20 mM NH4(CH3COO)2, 3 mM MnCl2, pH 7.6). In order to get a fully active enzyme the solution was incubated for 60 min at room temperature.
450 μl solution with the test compounds in an concentration range of 5*10^−3 M-5*10^−7 M were admixed with 500 μl buffer solution (20 mM NH4(CH3COO)2, pH 7.6) and 250 μl Ile-Pro-OH (0.5 mM in the assay mixture). The assay mixture was pre-incubated at 30° C. for 5 min. After pre-incubation, 75 μl Prolidase (1:10 diluted in assay buffer) was added and measurement was performed at 30° C. and λ=220 nm for 20 min using a UV/Vis photometer, UV1 (Thermo Spectromc, Cambridge, UK).
The IC 50-values were calculated using Graphit 4.0.15 (Erithacus Software, Ltd., UK).

For assay [3], the system named is diabetic Zucker rats. Briefly: Glucose tolerance (OGTT) in diabetic Zucker rats. Particulars: for Improvement: vs AUC control. Format: in vivo, Zucker rats (fa/fa). On the procedure: N=30 male Zucker rats (fa/fa), mean age 11 weeks (5-12 weeks), mean body weight 350 g (150-400 g), were purchased from Charles River (Sulzfeld, Germany). They were kept for >12 weeks until all the fatty Zucker rats had the characteristics of manifest Diabetes mellitus.
Animals were kept single-housed under conventional conditions with controlled temperature (22±2° C.) on a 12/12 hours light/dark cycle (light on at 06:00 a.m.). Standard pellets (ssniff®, Soest, Germany) and tap water acidified with HCl were allowed ad libitum.
Fatty Zucker rats, 17-24 weeks old, adapted to the housing conditions, were well prepared for the tests. Catheters were implanted into the carotid artery of fatty Zucker rats under general anaesthesia (i.p. injection of 0.25 ml/kg b.w. Rompun® [2%], BayerVital, Germany and 0.5 ml/kg b.w. Ketamin 10, Atarost GmbH & Co., Twistringen, Germany). The animals were allowed to recover for one week. The catheters were flushed with heparin-saline (100 IU/ml) three times per week. In case of catheter dysfunction, a second catheter was inserted into the contra-lateral carotid artery of the respective rat. After one week of recovery from surgery, this animal was reintegrated into the study. In case of dysfunction of the second catheter, the animal was withdrawn from the study. A new animal was recruited and the experiments were continued in the planned sequence, beginning at least 7 days after catheter implantation.
Fatty Zucker rats with intact catheter function were given in random order placebo (1 ml saline, 0.154 mol/l; N=9 animals as control), or test substance, solved in 1 ml saline (N=6 animals in each test group).
After overnight fasting, the fatty Zucker rats were given placebo and test substance, respectively, via feeding tube orally (15 G, 75 mm; Fine Science Tools, Heidelberg, Germany) at −10 min. An oral glucose tolerance test (OGTT) with 2 g/kg b.w. glucose as a 40% solution (B. Braun Melsungen, Melsungen, Germany) was implemented at ±0 min. The glucose was administered via a second feeding tube. Arterial blood samples from the carotid catheter were collected at −30 min, −15 min, ±0 min and at 5, 10, 15, 20, 30, 40, 60, 90 and 120 min into 20 μl glass capillaries, which were placed in standard tubes filled with 1 ml solution for hemolysis (blood glucose measurement). […]
Blood glucose: Glucose levels were measured using the glucose oxidase procedure (Super G Glukosemeβgerät; Dr. Müller Gerätebau, Freital, Germany).

Broadly, the Ki is a dissociation constant, usually derived from enzyme kinetics or from competition with a known ligand. What is called IC50 is the concentration that inhibits the measured activity by half. A low value points to greater potency in that assay.

T1 sequence (P22411 whole entry): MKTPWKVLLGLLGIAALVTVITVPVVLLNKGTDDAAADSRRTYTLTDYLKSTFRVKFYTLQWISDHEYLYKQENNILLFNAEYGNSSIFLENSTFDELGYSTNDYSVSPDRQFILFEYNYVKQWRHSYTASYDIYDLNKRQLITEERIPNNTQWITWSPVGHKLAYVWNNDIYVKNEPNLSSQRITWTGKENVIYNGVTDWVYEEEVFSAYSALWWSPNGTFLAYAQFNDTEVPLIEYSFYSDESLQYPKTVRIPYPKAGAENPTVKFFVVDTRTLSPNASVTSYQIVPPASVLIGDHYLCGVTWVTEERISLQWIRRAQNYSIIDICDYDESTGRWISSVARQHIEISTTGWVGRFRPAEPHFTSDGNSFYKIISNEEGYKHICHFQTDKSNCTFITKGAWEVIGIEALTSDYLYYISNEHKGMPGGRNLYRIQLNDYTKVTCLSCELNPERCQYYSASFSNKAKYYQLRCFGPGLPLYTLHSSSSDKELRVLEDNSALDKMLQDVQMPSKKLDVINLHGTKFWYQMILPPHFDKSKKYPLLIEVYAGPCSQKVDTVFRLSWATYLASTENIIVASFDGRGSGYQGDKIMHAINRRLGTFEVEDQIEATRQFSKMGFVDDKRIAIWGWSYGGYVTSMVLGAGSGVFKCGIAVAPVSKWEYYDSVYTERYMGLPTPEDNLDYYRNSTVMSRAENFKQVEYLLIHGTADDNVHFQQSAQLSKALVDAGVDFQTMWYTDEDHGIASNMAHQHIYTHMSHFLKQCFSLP

Turning to `Br.CC(=O)OCC(=O)[C@@H]1CCCN1C(=O)[C@@H](NC(=O)[C@H](C)N)C(C)C` [H-Ala-Val-Pro-CH2O—CO—CH3*HBr, 2-[(Acetyloxy-methyl)carbonyl]-1-N-[(L)-Alanyl-(L)-Valinyl]-(2S)-pyrrolidine hydrobromide], in assay [1], the Ki is 1.05 nM. For the same compound, the “T1/2 (half-life, from enzyme activity versus reaction time)” value in assay [1] was 10.8 min. Further, the “Prolidase IC50” value in assay [2] is given as “no inhibition”. The AUC test compound came out at 309.1 mmol·min/L in assay [3] (OGTT, 5 mg/kg b.w. oral); 300.9 mmol·min/L in assay [3] (OGTT, 15 mg/kg b.w. oral); 254.7 mmol·min/L in assay [3] (OGTT, 50 mg/kg b.w. oral). In addition, the Improvement in assay [3] (OGTT, 5 mg/kg b.w. oral) is on record as 44.9%; in assay [3] (OGTT, 15 mg/kg b.w. oral), 46.4%; in assay [3] (OGTT, 50 mg/kg b.w. oral), 54.6%.
Consider `Br.CC(C)[C@H](NC(=O)[C@H](C)N)C(=O)N1CCC[C@H]1C(=O)COC(=O)c1ccccc1` [H-Ala-Val-Pro-CO—CH2O—CO—Ph*HBr, 2-[(Benzoyloxy-methyl)carbonyl]-1-N-[{(L)-Alanyl}-(L)-Valinyl]-(2S)-pyrrolidine hydrobromide], for which the Ki in assay [1] is 0.536 nM. For the same compound, the “T1/2 (half-life, from enzyme activity versus reaction time)” value in assay [1] is 15.1 min. The IC50 in assay [2] turned out to be 414000 nM. The AUC test compound in assay [3] (OGTT, 5 mg/kg b.w. oral) was 209.1 mmol·min/L; in assay [3] (OGTT, 15 mg/kg b.w. oral), 245.4 mmol·min/L; in assay [3] (OGTT, 50 mg/kg b.w. oral), 160.5 mmol·min/L. In addition, the Improvement in assay [3] (OGTT, 5 mg/kg b.w. oral) was found to be 59.5%; in assay [3] (OGTT, 15 mg/kg b.w. oral) it was 52.6%; in assay [3] (OGTT, 50 mg/kg b.w. oral), 69.0%.
In the case of `Br.CC(=O)[C@@H]1CCCN1C(=O)[C@@H](NC(=O)[C@H](C)N)C(C)C` [H-Ala-Val-Pro-Me*HBr, 2-Methylcarbonyl-1-N-[(L)-Alanyl-(L)-Valinyl]-(2S)-pyrrolidine hydrobromide], in assay [1], the Ki worked out at 47.6 nM and the “T1/2 (half-life, from enzyme activity versus reaction time)” value stood at 12.4 min. Besides, the IC50 in assay [2] is 413000 nM. The AUC test compound in assay [3] (OGTT 2 g/kg glucose, 100 mg/kg b.w. oral) came to 394.4 mmol·min/L. Moreover, the Improvement in assay [3] (OGTT, 100 mg/kg b.w. oral) came out at 48.5%.

The record behind these values is patent US7608577B2, “Peptidyl ketones as inhibitors of DPIV” (OSI Pharmaceuticals, Inc., priority 2001, dated 2009).
